The results in this text go back to US11324706B2, “Composition for inhibiting growth of breast cancer stem cells containing phenylacetaldehyde” (JEJU NATIONAL UNIVERSITY INDUSTRY-ACADEMIC COOPERATION …, priority 2016, dated 2022).

Experiment [1] concerns nuclear STAT3 proteins (phosphorylation). Nature of the experiment: Western blotting of mammosphere nuclear proteins, pStat3. The settings on record: MCF-7-derived mammospheres, compared to the control group. The format is cell-based, human. As to the method: The proteins isolated from mammospheres of PAA-treated MCF-7 were separated on 10% SDS-PAGE and transferred to a polyvinylidene difluoride membrane (Millipore, Bedford, Mass., USA). The membrane was blocked in 5% skim milk-containing PBS-Tween 20 (0.1%, v/v) for 30 minutes at room temperature. The blot was cultured at 4° C. in a blocking solution containing primary antibodies overnight. The used primary antibodies were as follows: Stat3, p65, Lamin B, and phospho-Stat3 (Cell Signaling, Beverly, Mass., USA). β-actin antibodies (Santa Cruz Biotechnology) were used as a loading control group. After washing with PBS-Tween 20 (0.1%, v/v), the blot was cultured in a horseradish peroxidase-conjugated secondary antibody and subjected to photosensitive treatment with a chemiluminescent detection kit (Santa Cruz Biotechnology).
In order to investigate cellular functions of PAA, STAT3 and NF-κB pathways were investigated in MCF-7-derived mammospheres subjected to treatment with PAA. As compared to the control group, PAA reduced phosphorylation of nuclear STAT3 proteins.
(In general: Immunoblotting shows a protein as a band on a membrane.)

For experiment [2], the system named is MCF-7 cell-derived mammospheres. Nature of the experiment: Mammosphere formation, MCF-7-derived. The format is cell-based, human. As to the method:
FIGS. 4A, 4B and 4C show effects of PAA on formation of MCF-7 cell-derived mammospheres. Primary mammospheres were cultured together with PAA (0.2 and 0.5 mM) or DMSO;
Human breast cancer cells, i.e., MCF-7 and MDA-MB-231, were commercially obtained from American Type Culture Collection (ATCC; Manassas, Va., USA). MCF-7 and MDA-MB-231 cells were cultured in Dulbecco's modified essential medium (DMEM; Hyclone, Logan, Utah, USA) containing 10% fetal bovine serum (FBS; Hyclone), 100 U/mL of penicillin, and 100 μg/mL of streptomycin (Hyclone). The MCF-7 and MDA-MB-231 cells were maintained at 37° C. in a 5% CO2-containing humidified incubator. The cells were plated at a density of 1×10^6 on a 10 cm petri dish. In order to establish primary mammospheres, single cell-suspended MCF-7 and MDA-MB-231 cells were seeded at a density (cells/well) of 3.5×10^4 to 4×10^4 and 0.5×10^4 to 1×10^4, respectively, on ultra-low attachment 6-well plates containing 2 ml complete MammoCult™ medium (StemCell Technologies, Vancouver, BC, Canada). The complete MammoCult™ medium was supplemented with 4 μg/mL of heparin, 0.48 μg/mL of hydrocortisone, 100 U/mL of penicillin and 100 μg/mL of streptomycin. The cells were cultured for 7 days in a 37° C. 5% CO2 incubator.
At 7 days of culture, the cell culture plate was disposed on a scanner (Epson Perfection V700 PHOTO, Epson Korea, Co, Seoul, Korea) to obtain an 8 bit gray scale image of mammospheres. The image was obtained at a low resolution (300 dpi) using an NICE software program and downloaded from ftp://ftp.nist.gov/pub/physics/mLclarke/NICE. For counting, preferred numbers of rows and columns (for example, 2×3 of 6-well plate) were selected to form regions of interest (ROIs), and an oval setting of the NICE program was selected and then respective ROIs were defined by moving the shapes of provided ROIs and controlling the sizes thereof. The background signal of the image was negated using a critical algorithm and the selected image was automatically counted. Regarding the mammosphere formation analysis, formation efficiency of mammospheres (MFE, %) was determined in accordance with the number of mammospheres per well/the total number of cells plated per well×100.

Another experiment concerns MDA-MB-231 cells. In words: Scratch migration assay. The format is cell-based, human. As to the method: Scratch curing of MDA-MB-231 cells was imaged at […] with or without PAA treatment;
MDA-MB-231 cells were seeded on a 6-well plate to grow cells until confluence reached 90%. Scratch was created on the cell layer using a sterilized white micro-pipette tip. After washing with DMEM medium, breast cancer cells were treated with PAA or DMSO. 16 hours later, the scratch region was imaged with a 10× optical microscope.

The next experiment concerns Cancer stem cells. Nature of the experiment: Formation of CSCs under PAA steam (scent). In kind it is cell-based. The settings on record: PAA steam (1 mM), 7 days. As to the method:
Cancer stem cells were cultured in the presence of PAA steam (1 mM) and vehicle (methanol) for 7 days.
Then, formation of CSCs was analyzed by emission of PAA scent (FIG. 4C). As a result, PAA inhibited formation of CSCs. Volatile materials, i.e., PAA and phenylethanol, which are the most important for roses and tomatoes were derived from phenylalanine, as shown in FIG. 5A (FIG. 5A). In order to investigate whether or not phenylalanine-derived volatile materials, i.e., PAA and phenylethanol, and structural analogs (2- and 3-phenylpropionaldehydes) can inhibit formation of tumorspheres, these volatile materials were exposed to MCF-7.

The next experiment concerns MCF-7 cells. Nature of the experiment: Xenograft tumor model. In kind it is in vivo, NOD-SCID (BALB/cSIc (nu/nu)) female nude mice. As to the method: FIGS. 3A, 3B and 3C show effects of PAA on tumor growth in xenograft tumor models. 3 million cells were injected into breast fat pads of NOD-SCID female nude mice;
The dose of used drug is 10 mg/kg. 9 weeks later, the image was captured with Odyssey® image (LICOR, Pearl image system, USA). Using an IRDye 800 CW optical probe (2DG), a high grade of tumor was used to detect breast tumors at a channel of 800 nm and was represented by pseudo-color;
A tumor growth curve was monitored during the test period;
Tumor volume was measured after initiation of treatment. * means p<0.05, as compared to control group. A representative image was captured at the end of 9 weeks of treatment. Results are shown as a vehicle-treated control group, a PAA-treated mouse and a Dox-treated mouse;
24 NOD-SCID (BALB/cSIc (nu/nu)) female nude mice in total were divided into four groups producing breast cancer cells. Six mice as a negative control group were not subjected to chemotherapy. However, the volumes of tumors of control group mice were measured every three days using the Equation of (width^2×length)/2 (FIG. 3). PAA was administered at the optimal dose of 10 to 50 mg/kg to six other nude mice via breast fat pad injection. In addition, doxorubicin (Dox) was administered daily in a low dose of 10 mg/kg to other six nude mice as a positive control group via breast fat pad injection. The last group was used as a non-tumor group without treatment.

With `O=CCc1ccccc1` [PAA, phenylacetaldehyde], in experiment [1], the “phosphorylation of nuclear STAT3 proteins” value is “reduced”. In addition, the size of mammospheres entry in experiment [2] (MCF-7-derived, 7 days) is “reduced”. Moreover, the “formation of primary mammospheres derived from MCF-7 cells” value in experiment [2] (volatile materials exposed to MCF-7 (FIG. 5B)) is on record as “potently inhibited”. Besides, the “migration of MDA-MB-231 cells” value in the experiment with MDA-MB-231 cells is “concentration-dependently inhibited”. Also, in the experiment with Cancer stem cells, the “formation of CSCs by emission of PAA scent” value is listed as “inhibited”. Further, the tumor volume entry is reported as “less than that of Doxorubicin” in the experiment on MCF-7 cells (compared with Doxorubicin positive control group (10 mg/kg)) and “less than that of a control group” in the experiment with MCF-7 cells (compared with control group not treated with PAA, breast fat pad injection). The tumor weight result with MCF-7 cells (compared with control group not treated with PAA) was “less than control group”.
